Source: patent US10449168B2 (The University of Toledo, priority 2015, dated 2019)
Entries after “also recorded” stand apart in the source; their conditions may differ.

Tests used:
Type in all cases: biochemical
[1] = target: T1, Vibrio cholerae aspartate semialdehyde dehydrogenase (vcASADH) (Vibrio cholerae serotype O1, UniProt P23247); experiment: biochemical; conditions: relative to parent or neighbouring derivative
T1 construct: made in house

[2] = target: Streptococcus pneumoniae aspartate semialdehyde dehydrogenase (spASADH) (Streptococcus pneumoniae, UniProt Q8DQ00); experiment: biochemical; conditions: relative to parent or neighbouring derivative
[3] = target: T2, Streptococcus pneumoniae aspartate semialdehyde dehydrogenase (spASADH) (Streptococcus pneumoniae, UniProt Q8DQ00); experiment: spASADH kinetic assay: reverse direction, NADPH absorbance at 340 nm; Ki from Dixon plot assuming competitive inhibition against ASA; conditions: pH 8.6, r.t., 0.15 mM ASA, 1.5 mM NADP, 20 mM phosphate
T2 construct: homodimer from general knowledge
T2 sequence (Q8DQ00 1-358): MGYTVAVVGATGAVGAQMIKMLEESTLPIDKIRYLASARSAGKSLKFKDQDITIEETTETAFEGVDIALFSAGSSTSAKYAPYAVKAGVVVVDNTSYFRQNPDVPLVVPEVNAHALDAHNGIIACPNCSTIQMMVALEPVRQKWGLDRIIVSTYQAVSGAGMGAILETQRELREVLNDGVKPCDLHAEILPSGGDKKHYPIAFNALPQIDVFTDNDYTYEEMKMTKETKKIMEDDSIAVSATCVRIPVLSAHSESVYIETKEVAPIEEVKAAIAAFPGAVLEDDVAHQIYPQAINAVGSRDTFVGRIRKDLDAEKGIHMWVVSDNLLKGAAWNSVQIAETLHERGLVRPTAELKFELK

[4] = target: Vibrio cholerae aspartate semialdehyde dehydrogenase (vcASADH); experiment: vcASADH kinetic assay: reverse direction, NADPH absorbance at 340 nm; Ki from Dixon plot assuming competitive inhibition against ASA; conditions: pH 8.6, r.t., 0.3 mM ASA, 1.5 mM NADP, 20 mM phosphate
[5] = target: T3, aspartate N-acetyltransferase (ANAT) (Homo sapiens, UniProt Q8N9F0); experiment: ANAT substrate selectivity (acetyl group acceptor); conditions: glutamate vs. aspartate as acetyl acceptor
T3 sequence (Q8N9F0 1-302): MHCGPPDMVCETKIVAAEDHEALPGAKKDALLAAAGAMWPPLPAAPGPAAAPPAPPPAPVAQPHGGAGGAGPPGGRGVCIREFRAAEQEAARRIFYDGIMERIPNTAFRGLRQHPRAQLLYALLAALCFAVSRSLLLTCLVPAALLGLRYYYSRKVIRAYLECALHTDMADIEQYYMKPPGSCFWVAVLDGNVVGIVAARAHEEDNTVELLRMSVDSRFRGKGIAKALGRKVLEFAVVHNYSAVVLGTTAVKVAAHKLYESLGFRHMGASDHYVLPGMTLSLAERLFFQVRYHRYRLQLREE
Source text: ANAT is difficult to purify.

T1 sequence (P23247 whole entry): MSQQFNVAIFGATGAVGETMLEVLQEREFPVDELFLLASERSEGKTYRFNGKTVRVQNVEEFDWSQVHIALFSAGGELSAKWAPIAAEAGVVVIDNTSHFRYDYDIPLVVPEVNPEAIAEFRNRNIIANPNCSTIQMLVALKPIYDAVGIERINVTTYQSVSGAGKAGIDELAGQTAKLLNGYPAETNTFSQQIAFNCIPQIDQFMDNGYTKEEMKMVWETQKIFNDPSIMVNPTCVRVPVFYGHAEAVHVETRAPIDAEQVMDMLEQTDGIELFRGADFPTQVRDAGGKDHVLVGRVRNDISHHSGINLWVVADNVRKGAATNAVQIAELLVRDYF

| SMILES | inhibition / binding affinity for vcASADH (in words) [1] | inhibition / binding affinity for spASADH (in words) [2] | Ki ([3]; FIG. 4, Table 1) [µM] | Ki ([4]; FIG. 4, Table 1) [µM] | Ki ([3]; FIG. 5, Table 2) [µM] | Ki ([4]; FIG. 5, Table 2) [µM] | catalytic efficiency relative to that of the physiological substrate [5] |
| --- | --- | --- | --- | --- | --- | --- | --- |
| C[C@H](NCc1ccc(C(=O)O)c(C(=O)O)c1)C(=O)O [Compound 5, N-((2-methyl)carboxymethyl)-3,4-dicarboxybenzylamine] | no appreciable effect on the binding affinity | no appreciable effect on the binding affinity; also recorded: did not lead to enhanced affinity | 296 ± 26 | 609 ± 23 |  |  |  |
| O=C(O)CN(Cc1ccc(C(=O)O)c(C(=O)O)c1)Cc1ccccc1OC(F)(F)F [Compound 27, N-(2-trifluoromethyoxybenzyl)-N-carboxymethyl-3,4-dicarboxybenzylamine] | did not alter the affinity | did not alter the affinity |  |  | 540 ± 32 | 708 ± 47 |  |
| O=C(O)c1ccc(CN[C@@H](CO)C(=O)O)cc1C(=O)O [Compound 6, N-((2-hydroxymethyl)carboxymethyl)-3,4-dicarboxybenzylamine] | no appreciable effect on the binding affinity | no appreciable effect on the binding affinity; also recorded: did not lead to enhanced affinity | 324 ± 24 | 654 ± 22 |  |  |  |
| O=C(O)CN(Cc1cccc(OC(F)(F)F)c1)Cc1ccc(C(=O)O)c(C(=O)O)c1 [Compound 28, N-(3-trifluoromethoxybenzyl)-N-carboxymethyl-3,4-dicarboxybenzylamine] | did not alter the affinity | did not alter the affinity |  |  | 427 ± 31 | 684 ± 35 |  |
| N[C@@H](CCC(=O)O)C(=O)O [glutamate] |  |  |  |  |  |  | less than 1% |
